Consider 15 compounds from paper PMC6171417, “Carbonic anhydrase inhibition with a series of novel benzenesulfonamide-triazole conjugates” (Journal of Enzyme Inhibition and Medicinal Chemistry, 2018).

SMILES strings stand for the structures. Some results are limits rather than exact numbers.

Usually Ki stands for a measure of affinity in units of concentration, obtained from inhibition or displacement. Low readings indicate tighter binding, high ones weaker binding.

What all share (experiment): stopped-flow CO2 hydrase assay
Common to all, as to type: biochemical

For one assay, the target named is T1, hCA I (Homo sapiens, UniProt P00915).
T1 construct: gene CA1; recombinant, obtained in-house as reported earlier; cytosolic
T1 sequence (P00915 2-261): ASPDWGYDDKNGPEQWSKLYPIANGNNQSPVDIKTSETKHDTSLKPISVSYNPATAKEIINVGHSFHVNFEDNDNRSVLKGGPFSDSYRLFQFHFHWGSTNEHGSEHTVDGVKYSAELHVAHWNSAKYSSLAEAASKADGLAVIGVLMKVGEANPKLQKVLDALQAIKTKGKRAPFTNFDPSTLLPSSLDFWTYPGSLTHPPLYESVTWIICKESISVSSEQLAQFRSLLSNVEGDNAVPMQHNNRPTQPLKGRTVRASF
The source says: stopped-flow CO2 hydrase assay on hCA I

A further assay deals with T2, hCA IX (Homo sapiens, UniProt Q16790).
T2 construct: gene CA9; recombinant, obtained in-house as reported earlier
The text has this: stopped-flow CO2 hydrase assay on hCA IX

In a further assay the target is T3, hCA IV (Homo sapiens, UniProt P22748).
T3 construct: gene CA4; recombinant, obtained in-house as reported earlier
T3 sequence (P22748 19-284): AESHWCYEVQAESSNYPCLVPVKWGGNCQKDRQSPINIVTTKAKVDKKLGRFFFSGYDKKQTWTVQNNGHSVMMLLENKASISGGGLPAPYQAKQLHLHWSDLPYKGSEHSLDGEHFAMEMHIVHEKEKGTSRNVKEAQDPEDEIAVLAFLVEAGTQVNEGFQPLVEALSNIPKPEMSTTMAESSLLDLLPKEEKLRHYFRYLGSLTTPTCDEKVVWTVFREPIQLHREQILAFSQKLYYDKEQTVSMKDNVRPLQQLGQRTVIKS
The source says:
stopped-flow CO2 hydrase assay on hCA IV

A further assay has as its target T4, hCA II (Homo sapiens, UniProt P00918).
T4 construct: gene CA2; recombinant, obtained in-house as reported earlier; cytosolic
The text has this: stopped-flow CO2 hydrase assay on hCA II

In the case of `N#Cc1c(N)c2nnn(-c3ccc(S(N)(=O)=O)cc3)c2[nH]c1=O` [compound 13, 4-(7-amino-6-cyano-5-oxo-4,5-dihydro-3H-[1,2,3]triazolo[4,5-b]pyridin-3-yl) benzenesulfonamide], the Ki was 790 nM on hCA I, 287 nM at hCA IX, 167 nM on hCA IV and 957 nM on hCA II.
Consider `N=c1c2nnn(-c3ccc(S(N)(=O)=O)cc3)c2[nH]c(=O)n1-c1ccccc1` [compound 19, 4-(7-imino-5-oxo-6-phenyl-4,5,6,7-tetrahydro-3H-[1,2,3]triazolo[4,5-d]pyrimidin-3-yl)benzenesulfonamide], for which the Ki at hCA I is 2800 nM; on hCA IX, 158 nM; at hCA IV, 2270 nM; on hCA II, 589 nM.
In the same order, the values of `CC(=O)CC(=O)Nc1c(C#N)nnn1-c1ccc(S(N)(=O)=O)cc1` [compound 6, N-(4-cyano-1-(4-sulfamoylphenyl)-1H-1,2,3-triazol-5-yl)-3-oxobutanamide] are 2860 nM, 410 nM, 472 nM and 684 nM.
As for `[N-]=[N+]=Nc1ccc(S(N)(=O)=O)cc1` [compound 2, 4-azido benzenesulfonamide], the Ki was 235 nM on hCA IX and more than 10000 nM at hCA IV.
For `CN(C)c1ccc(/C=N/c2c(C#N)nnn2-c2ccc(S(N)(=O)=O)cc2)cc1` [compound 10, (E)-4-(4-cyano-5-((4-(dimethylamino)benzylidene)amino)-1H-1,2,3-triazol-1-yl)benzenesulfonamide], the inhibition constant (Ki) is 2920 nM at hCA I, 451 nM at hCA IX, 3410 nM on hCA IV and 179 nM at hCA II.
In the same order, the values of `N#Cc1nnn(-c2ccc(S(N)(=O)=O)cc2)c1/N=C/c1ccc(Cl)cc1` [compound 9, (E)-4-(5-((4-chlorobenzylidene)amino)-4-cyano-1H-1,2,3-triazol-1-yl) benzenesulfonamide] are 1600 nM, 307 nM, 4670 nM and 94.5 nM.
`N#Cc1nnn(-c2ccc(S(N)(=O)=O)cc2)c1NCC(=O)c1ccccc1` [compound 7, 4-(4-cyano-5-((2-oxo-2-phenylethyl)amino)-1H-1,2,3-triazol-1-yl)benzenesulfonamide]: the Ki was 1790 nM on hCA I, 283 nM at hCA IX, 745 nM on hCA IV and 562 nM at hCA II.
Turning to `N#Cc1c(-c2ccccc2Cl)nc2c(nnn2-c2ccc(S(N)(=O)=O)cc2)c1N` [compound 15, 4-(7-amino-5-(2-chlorophenyl)-6-cyano-3H-[1,2,3]triazolo[4,5-b]pyridin-3-yl)benzenesulfonamide], the Ki at hCA I came to 2690 nM; at hCA IX it was 407 nM; at hCA IV, 2580 nM; at hCA II, 230 nM.
Taken in the same sequence, the figures for `Nc1c(C2=NCCN2)nnn1-c1ccc(S(N)(=O)=O)cc1` [compound 4, 4-(5-amino-4-(4,5-dihydro-1H-imidazol-2-yl)-1H-1,2,3-triazol-1-yl)benzenesulfonamide] were 9940 nM, 3710 nM, 3190 nM and 6840 nM.
In the same order, the values of `Cc1ccc(S(=O)(=O)Nc2c(C#N)nnn2-c2ccc(S(N)(=O)=O)cc2)cc1` [compound 12, N-(4-cyano-1-(4-sulfamoylphenyl)-1H-1,2,3-triazol-5-yl)-4-methylbenzenesulfonamide] are 8100 nM, 105 nM, 2610 nM and 90.1 nM.
For the compound `N#Cc1nnn(-c2ccc(S(N)(=O)=O)cc2)c1/N=C/c1ccccc1Cl` [compound 8, (E)-4-(5-((2-chlorobenzylidene)amino)-4-cyano-1H-1,2,3-triazol-1-yl)-benzenesulfonamide], the Ki was 5140 nM on hCA I, 1770 nM at hCA IX, more than 10000 nM on hCA IV and 6130 nM at hCA II.
Taken in the same sequence, the figures for `N#Cc1nnn(-c2ccc(S(N)(=O)=O)cc2)c1NC(=O)CCl` [compound 5, 2-chloro-N-(4-cyano-1-(4-sulfamoylphenyl)-1H-1,2,3-triazol-5-yl)acetamide] were 2550 nM, 454 nM, 1200 nM and 518 nM.
Take `N=c1c2nnn(-c3ccc(S(N)(=O)=O)cc3)c2[nH]c(=S)n1-c1ccc(S(=O)(=O)Nc2cnc3ccccc3n2)cc1` [compound 21]: the Ki at hCA I worked out at 5840 nM; on hCA IX, 3810 nM; at hCA IV, 5030 nM; on hCA II, 2370 nM.
`N#Cc1nnn(-c2ccc(S(N)(=O)=O)cc2)c1N` [compound 3, 4-(5-amino-4-cyano-1H-1,2,3-triazol-1-yl)benzenesulfonamide]: the Ki stood at 1940 nM on hCA I, 118 nM on hCA IX, 2270 nM at hCA IV and 16.7 nM at hCA II.
As to `N#Cc1c(-c2ccccc2)nc2c(nnn2-c2ccc(S(N)(=O)=O)cc2)c1N` [compound 14, 4-(7-amino-6-cyano-5-phenyl-3H-[1,2,3]triazolo[4,5-b]pyridin-3-yl)benzenesulfonamide], the Ki at hCA I came out at 1250 nM; on hCA IX, 46.4 nM; on hCA IV, 676 nM; at hCA II, 57 nM.
